Active and inactive are the calls of the source. No rule for the calls is given here.
Test system: rodent carcinogenicity bioassays, tumor incidence
Assay: CCRIS carcinogenicity studies
Conditions: Species: RAT
In short: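 Archive of carcinogenicity, mutagenicity, tumor promotion and tumor inhibition results drawn from journals, NCI reports and other sources, expert-reviewed; covers 1985-2011 and is no longer updated.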

Measured: carcinogen call

CCN(N=O)C(N)=O
active: Strain/Sex: F344/MALE, Route: GAVAGE, Dose: 0, 2.4 MG IN 0.2 ML ETHYL ACETATE/CORN OIL (1:1) 2/WK FOR 28 WK (TOTAL DOSE: 135 MG) (STUDY DURATION: 80 WK), Tumor Site: Type of Lesion: FORESTOMACH: CARCINOMA, LUNG: CARCINOMA OR ADENOMA active; positive | Strain/Sex: F344/MALE, Route: GAVAGE, Dose: 0, 6 MG/ML (TOTAL DOSE 0; 0.4 MMOL) IN 2 ML ETHYL ACETATE AND CORN OIL (1:2) 2/WK FOR 20 WK (STUDY DURATION: LIFETIME), Dose: 0, 6 MG/ML (TOTAL DOSE 0; 0.4 MMOL) IN 2 ML ETHYL ACETATE AND CORN OIL (1:2) 2/WK FOR 20 WK (STUDY DURATION: LIFETIME), Tumor Site: Type of Lesion: FORESTOMACH: SQUAMOUS CELL CARCINOMA, THYROID: C-CELL TUMOR, FOLLICULAR CELL TUMOR, LUNG: TUMOR, NERVOUS SYSTEM: TUMOR;, Tumor Site: Type of Lesion: FORESTOMACH: SQUAMOUS CELL CARCINOMA, THYROID: C-CELL TUMOR, FOLLICULAR CELL TUMOR, LUNG: TUMOR, NERVOUS SYSTEM: TUMOR active; positive | Strain/Sex: F344/MALE, Route: GAVAGE, Dose: 0, 6 MG/ML IN 0.2 ML ETHYL ACETATE AND CORN OIL 2/WK FOR 20 WK (STUDY DURATION: LIFESPAN), Tumor Site: Type of Lesion: FORESTOMACH: TUMOR, THYROID: C-CELL TUMOR, FOLLICULAR CELL TUMOR, LUNG: TUMOR, NERVOUS SYSTEM: TUMOR, COLON: TUMOR, PERI, Tumor Site: Type of Lesion: FORESTOMACH: TUMOR, THYROID: C-CELL TUMOR, FOLLICULAR CELL TUMOR, LUNG: TUMOR, NERVOUS SYSTEM: TUMOR, COLON: TUMOR, PERI active; positive | Strain/Sex: F344/MALE, Route: GAVAGE, Dose: 0, 12 MG/ML (TOTAL DOSE 0; 1.1 MMOL) IN 2 ML ETHYL ACETATE AND CORN OIL (1:2) 2/WK FOR 28 WK (STUDY DURATION: LIFETIME), Dose: 0, 12 MG/ML (TOTAL DOSE 0; 1.1 MMOL) IN 2 ML ETHYL ACETATE AND CORN OIL (1:2) 2/WK FOR 28 WK (STUDY DURATION: LIFETIME), Tumor Site: Type of Lesion: FORESTOMACH: SQUAMOUS CELL CARCINOMA, LUNG: TUMOR, ILEUM/JEJUNUM: TUMOR, BODY CAVITY: MESOTHELIOMA, ZYMBAL GLAND: TUMOR;, Tumor Site: Type of Lesion: FORESTOMACH: SQUAMOUS CELL CARCINOMA, LUNG: TUMOR, ILEUM/JEJUNUM: TUMOR, BODY CAVITY: MESOTHELIOMA, ZYMBAL GLAND: TUMOR active; positive | Strain/Sex: F344/MALE, Route: GAVAGE, Dose: 0, 12 MG/ML IN 0.2 ML ETHYL ACETATE AND CORN OIL 2/WK FOR 28 WK (STUDY DURATION: LIFESPAN), Tumor Site: Type of Lesion: FORESTOMACH: TUMOR, LUNG: TUMOR, ILEUM/JEJUNUM: TUMOR, PERITONEUM: MESOTHELIOMA, Tumor Site: Type of Lesion: FORESTOMACH: TUMOR, LUNG: TUMOR, ILEUM/JEJUNUM: TUMOR, PERITONEUM: MESOTHELIOMA active; positive | Strain/Sex: F344/MALE, Route: ORAL, Dose: 0, 0.3, 1, 3, 10 PPM IN DRINKING WATER FOR 104 WK (STUDY DURATION: 111 WK), Dose: 0, 0.3, 1, 3, 10 PPM IN DRINKING WATER FOR 104 WK (STUDY DURATION: 111 WK), Tumor Site: Type of Lesion: BRAIN: GLIOMA, MAMMARY GLAND: FIBROMA, LUNG: ADENOMA, LUNG: ADENOCARCINOMA, PERITONEUM: MESOTHELIOMA, Tumor Site: Type of Lesion: BRAIN: GLIOMA, MAMMARY GLAND: FIBROMA, LUNG: ADENOMA, LUNG: ADENOCARCINOMA, PERITONEUM: MESOTHELIOMA active; positive | Strain/Sex: SPRAGUE-DAWLEY/FEMALE, Route: IN UTERO, Dose: 0, 2.5, 10 MG/KG BW ONCE ADMINISTERED INTRAVENOUSLY ON DAY 15 OF GESTATION (STUDY DURATION: 104 WK), Dose: 0, 2.5, 10 MG/KG BW ONCE ADMINISTERED INTRAVENOUSLY ON DAY 15 OF GESTATION (STUDY DURATION: 104 WK), Tumor Site: Type of Lesion: BRAIN: GLIOMA active; positive | Strain/Sex: SPRAGUE-DAWLEY/MALE, Route: IN UTERO, Dose: 0, 2.5, 10 MG/KG BW ONCE ADMINISTERED INTRAVENOUSLY ON DAY 15 OF GESTATION (STUDY DURATION: 104 WK), Dose: 0, 2.5, 10 MG/KG BW ONCE ADMINISTERED INTRAVENOUSLY ON DAY 15 OF GESTATION (STUDY DURATION: 104 WK), Tumor Site: Type of Lesion: BRAIN: GLIOMA active; positive | Strain/Sex: SPRAGUE-DAWLEY, Route: INTRAVENOUSLY TO MATERNAL RATS AT 15 D OF GESTATION, PROGENY OBSERVED, Dose: 0, 2.5, 6.25, 10.0 MG/KG BW (STUDY DURATION: 24 MO), Dose: 0, 2.5, 6.25, 10.0 MG/KG BW (STUDY DURATION: 24 MO), Tumor Site: Type of Lesion: BRAIN: OLIGODENDRO-GLIOMA AND MIXED GLIOMA active; positive | Strain/Sex: SPRAGUE-DAWLEY, Route: INTRAVENOUSLY TO MOTHERS AT 15 D OF GESTATION, PROGENY OBSERVED, Dose: 0, 2.5, 6.25, 10.0 MG/KG BW (STUDY DURATION: 2 YRS), Dose: 0, 2.5, 6.25, 10.0 MG/KG BW (STUDY DURATION: 2 YRS), Tumor Site: Type of Lesion: CRANIAL NERVE: TUMORS active; positive | Strain/Sex: SPRAGUE-DAWLEY, Route: INTRAVENOUSLY TO MOTHERS AT 15 D OF GESTATION, PROGENY OBSERVED, Dose: 0, 2.5, 6.25, 10.0 MG/KG BW (STUDY DURATION: 2 YRS), Dose: 0, 2.5, 6.25, 10.0 MG/KG BW (STUDY DURATION: 2 YRS), Tumor Site: Type of Lesion: SPINAL NERVE: TUMORS active; positive | Strain/Sex: SPRAGUE-DAWLEY, Route: INTRAVENOUSLY TO MOTHERS AT 15 D OF GESTATION, PROGENY OBSERVED, Dose: 0, 2.5, 6.25, 10.0 MG/KG BW (STUDY DURATION: 24 MO), Dose: 0, 2.5, 6.25, 10.0 MG/KG BW (STUDY DURATION: 24 MO), Tumor Site: Type of Lesion: SPINAL CORD: TUMORS active; positive | Strain/Sex: WISTAR/MALE, FEMALE, Route: SUBCUTANEOUS, Dose: 0, 60 MG/KG BW ADMINISTERED TO 3 DAY OLD RATS (STUDY DURATION: 12 MO), Tumor Site: Type of Lesion: CENTRAL NERVOUS SYSTEM: GLIOMA active; positive | Strain/Sex: WISTAR/MALE, FEMALE, Route: TRANSPLACENTAL, Dose: 0, 60 MG/KG BW INTRAVENOUS DOSE ADMINISTERED TO LATE GESTATIONAL RATS AND OFFSPRING OBSERVED FOR 12 MO (STUDY DURATION:, Tumor Site: Type of Lesion: CENTRAL NERVOUS SYSTEM: GLIOMA active; positive | Strain/Sex: WISTAR/MALE, Route: INTRAPERITONEAL, Dose: 300 MG/KG BW 1/WK FOR 45 WK (STUDY DURATION: 45 WK), Tumor Site: Type of Lesion: INTEGUMENTARY SYSTEM (SUBCUTANEOUS TISSUE): SPINDLE CELL SARCOMA active; positive

— PubChem BioAssay AID1259411 (Chemical Carcinogenesis Research Information System (CCRIS), 2018)
